# Literature values in patent EP0062861A1, “Isophorone-free formulations of the herbicide propanyl” (Montedison S.p.A., priority 1981, dated 1982).
# Tested on: mammalians
# Conditions: toxicity towards mammalians
compound,measurement,value
"CCC(=O)Nc1ccc(Cl)c(Cl)c1 [Propanyl, N-(3,4-dichlorophenyl)-propionamide]",LD 50,1384 mg/kg
